Earlier results in patent publication US12208399B2, “Electrochemical separation and recovery of metals” (YALE UNIVERSITY, priority 2017, dated 2025).
Converted amounts (≈) assume the structure as drawn.

Row | Structure (SMILES) | Solubility in water [mg/mL]
1 | O=C1C(Cl)=CC(=Nc2ccc(O)cc2)C=C1Cl [DCIP, 2,6-dichloroindophenol] | 10 (≈ 37.3 mM)
2 | Cc1cc2nc3c(=O)[nH]c(=O)nc-3n(C[C@@H](O)[C@@H](O)[C@@H](O)COP(=O)(O)O)c2cc1C [RMP, riboflavin 5′-monophosphate] | 100 (≈ 219 mM)
